In PMC7806715, “Discovery of small molecules targeting the tandem tudor domain of the epigenetic factor UHRF1 using fragment-based ligand discovery” (Scientific Reports, 2021):

What was measured:
[1] = target: T1, His6-TTD (UHRF1 tandem Tudor domain) vs. H3K9me3 peptide (Homo sapiens, UniProt Q96T88); test: TR-FRET assay: His6-TTD interaction with H3K9me3 peptide; type: biochemical; settings: protein treated with PKA and ATP 1 h at 30 °C
T1 construct: Using the isolated His6-TTD (aa 123–283) we performed a thermal shift assay; made in house; host or cells: Rosetta (DE3) E. coli, pMCSG7
T1 sequence (Q96T88 123-283): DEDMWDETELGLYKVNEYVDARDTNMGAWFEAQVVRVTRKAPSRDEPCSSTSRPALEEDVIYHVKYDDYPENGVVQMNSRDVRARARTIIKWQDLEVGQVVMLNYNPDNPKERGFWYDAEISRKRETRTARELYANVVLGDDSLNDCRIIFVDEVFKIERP
Description: Finally, the fragment library was screened using a TR-FRET assay to find inhibitors that block the interaction of His6-TTD with H3K9me3 peptide. In this assay, an anti-His6-antibody labeled with Tb cryptate binds to His6-TTD while a streptavidin-d2 acceptor binds to a biotinylated histone H3K9me3 peptide. The binding between His6-TTD and H3K9me3 peptide was measured by the ratio of 665 nm fluorescence (from the d2 acceptor) to 620 nm fluorescence (from the Tb cryptate donor) (Fig. 1D).
The fragment screen was carried out on low volume 384-well white plates (Corning 4512) and the assay was performed at room temperature. […] After 1 h of incubation, the fluorescent signals at 665 nm and 620 nm of each plate were measured by the Tecan Infinite M1000 plate reader (excitation 340 nm, 60 µs lag time, and 500 µs integration time) and the TR-FRET signal was calculated by the ratio of 665 nm/620 nm fluorescent signal. For the fragment screen, on seven of the library plates there were 32-wells of DMSO control, while there were 8-wells of DMSO control in the last plate. […] The only difference was that the final concentration of His6-TTD-PHD was 200 nM, biotin-H3K9me3 peptide was 200 nM for the His6-TTD-PHD TR-FRET assay, while the final concentration of His6-UHRF1-FL was 200 nM and biotin-H3K9me3 peptide was 100 nM for the His6-UHRF1-FL TR-FRET assay. The buffer pH was 7.5 for the His6-TTD-PHD and His6-UHRF1-FL assays.

[2] = target: T2, His6-UHRF1-full length vs. H3K9me3 peptide (Homo sapiens, UniProt Q96T88); test: TR-FRET assay: His6-UHRF1-FL binding to H3K9me3 peptide; type: biochemical; settings: dose-response, side by side with His6-TTD
T2 construct: made in house; host or cells: Rosetta (DE3) E. coli, pMCSG7
T2 sequence (Q96T88 1-793): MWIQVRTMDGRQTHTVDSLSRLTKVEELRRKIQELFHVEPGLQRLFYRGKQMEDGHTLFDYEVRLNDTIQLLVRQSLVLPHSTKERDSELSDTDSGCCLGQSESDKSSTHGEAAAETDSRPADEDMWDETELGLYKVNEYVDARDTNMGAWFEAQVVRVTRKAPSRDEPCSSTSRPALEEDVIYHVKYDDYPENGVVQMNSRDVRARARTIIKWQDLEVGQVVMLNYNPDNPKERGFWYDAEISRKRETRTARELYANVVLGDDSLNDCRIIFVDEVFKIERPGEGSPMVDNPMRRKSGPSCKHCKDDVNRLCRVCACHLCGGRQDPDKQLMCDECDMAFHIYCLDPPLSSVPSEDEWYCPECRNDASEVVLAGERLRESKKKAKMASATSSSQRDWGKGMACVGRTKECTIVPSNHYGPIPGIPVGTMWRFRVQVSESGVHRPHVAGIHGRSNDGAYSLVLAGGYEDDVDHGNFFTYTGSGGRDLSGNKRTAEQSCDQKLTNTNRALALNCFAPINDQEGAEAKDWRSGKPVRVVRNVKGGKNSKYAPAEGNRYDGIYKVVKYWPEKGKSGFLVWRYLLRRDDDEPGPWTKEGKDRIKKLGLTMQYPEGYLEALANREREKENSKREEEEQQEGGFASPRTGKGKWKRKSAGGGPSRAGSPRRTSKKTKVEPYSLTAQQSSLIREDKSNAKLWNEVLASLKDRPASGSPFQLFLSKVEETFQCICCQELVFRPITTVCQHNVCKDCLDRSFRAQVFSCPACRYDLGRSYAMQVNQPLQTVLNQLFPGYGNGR
Description: The fragment screen was carried out on low volume 384-well white plates (Corning 4512) and the assay was performed at room temperature. The TR-FRET reagent mix contained 200 nM of biotinylated-H3K9me3 peptide (Anaspec), 250 nM of His6-TTD, 25 nM of streptavidin-d2 (CisBio), and 1 × anti-6His-Tb cryptate Gold (Cisbio) in TR-FRET buffer (50 mM sodium phosphate, pH 7, 150 mM NaCl, 1 mM DTT, and 0.1% Triton-X-100). During the screen, 5 μl of TR-FRET reagent mix was dispensed into each well, and 100 nl of chemical fragments stock (10 mM in DMSO) was added to each well by pintool using Tecan Freedom Evo liquid handler to make the final compound concentration 196 μM. After 1 h of incubation, the fluorescent signals at 665 nm and 620 nm of each plate were measured by the Tecan Infinite M1000 plate reader (excitation 340 nm, 60 μs lag time, and 500 μs integration time) and the TR-FRET signal was calculated by the ratio of 665 nm/620 nm fluorescent signal. For the fragment screen, on seven of the library plates there were 32-wells of DMSO control, while there were 8-wells of DMSO control in the last plate. The TR-FRET assays for the interactions between His6-TTD-PHD and His6-UHRF1-FL binding to biotinylated-H3K9me3 (1-20) peptide were similar to the assay for His6-TTD. […]

Cc1ccnc(C)c1 [2,4-lutidine]
effect of PKA treatment of His6-TTD on inhibition of H3K9me3 peptide binding (in words) [1]: no effect | inhibition of His6-UHRF1-FL interaction with H3K9me3 peptide (in words) [2]: only weakly inhibits
